Experimental data taken from PubChem BioAssay AID248 (DTP/NCI, 2004).
Toxic doses and inconclusive results are not listed. Cut-off read from the data, not from the text of the source: active = T/C of 150% or more; inactive = T/C below 125%.

System: L1210 leukemia ip in BDF1 mice, survival T/C
Assay: NCI In Vivo Anticancer Drug Screen. Data for tumor model L1210 Leukemia (intraperitoneal) in B6D2F1 (BDF1) mice
Conditions: endpoint: mean survival time, higher = longer survival
Method in brief: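 Antitumor effect is assessed in tumor-bearing animals. Survival in the compound arm is compared with a vehicle-dosed control arm and expressed as their quotient.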

[1] = dose: 100.0 mg/kg/injection, schedule: Q04DX002 (ip), vehicle: Klucel (hydroxypropylcellulose) (HPC)
[2] = dose: 200.0 mg/kg/injection, schedule: Q04DX002 (ip), vehicle: Klucel (hydroxypropylcellulose) (HPC)
[3] = dose: 400.0 mg/kg/injection, schedule: Q04DX002 (ip), vehicle: Klucel (hydroxypropylcellulose) (HPC)
[4] = dose: 100.0 mg/kg/injection, schedule: Q01DX009 (ip), vehicle: saline with Tween-80
[5] = dose: 100.0 mg/kg/injection, schedule: Q01DX009 (ip), vehicle: saline
[6] = dose: 100.0 mg/kg/injection, schedule: Q04DX003 (ip), vehicle: Klucel (hydroxypropylcellulose) (HPC)
[7] = dose: 100.0 mg/kg/injection, schedule: Q04DX003 (ip), vehicle: saline
[8] = dose: 200.0 mg/kg/injection, schedule: Q01DX009 (ip), vehicle: saline
[9] = dose: 200.0 mg/kg/injection, schedule: Q04DX003 (ip), vehicle: Klucel (hydroxypropylcellulose) (HPC)
[10] = dose: 200.0 mg/kg/injection, schedule: Q04DX003 (ip), vehicle: saline
[11] = dose: 400.0 mg/kg/injection, schedule: Q01DX009 (ip), vehicle: saline
[12] = dose: 400.0 mg/kg/injection, schedule: Q04DX003 (ip), vehicle: Klucel (hydroxypropylcellulose) (HPC)
[13] = dose: 400.0 mg/kg/injection, schedule: Q04DX003 (ip), vehicle: saline
[14] = dose: 100.0 mg/kg/injection, schedule: Q01DX009 (ip), vehicle: Klucel (hydroxypropylcellulose) (HPC)
[15] = dose: 200.0 mg/kg/injection, schedule: Q01DX009 (ip), vehicle: Klucel (hydroxypropylcellulose) (HPC)
[16] = dose: 400.0 mg/kg/injection, schedule: Q01DX009 (ip), vehicle: Klucel (hydroxypropylcellulose) (HPC)
[17] = dose: 100.0 mg/kg/injection, schedule: Q01DX001 (ip), vehicle: saline
[18] = dose: 200.0 mg/kg/injection, schedule: Q01DX001 (ip), vehicle: saline
[19] = dose: 400.0 mg/kg/injection, schedule: Q01DX001 (ip), vehicle: saline
[20] = dose: 100.0 mg/kg/injection, schedule: Q04DX003 (ip), vehicle: saline with Tween-80
[21] = dose: 200.0 mg/kg/injection, schedule: Q04DX003 (ip), vehicle: saline with Tween-80
[22] = dose: 400.0 mg/kg/injection, schedule: Q04DX003 (ip), vehicle: saline with Tween-80

Measured: T/C

CC1C2CC3OC(=O)C1C3C2 (centres undefined)
inactive: dose: 50.0 mg/kg/injection, schedule: Q01DX001 (ip), vehicle: carboxymethylcellulose (CMC) 104 % of control | dose: 100.0 mg/kg/injection, schedule: Q01DX001 (ip), vehicle: carboxymethylcellulose (CMC) 102 % of control | dose: 200.0 mg/kg/injection, schedule: Q01DX001 (ip), vehicle: carboxymethylcellulose (CMC) 87 % of control

O=C(O)c1nnn(Cc2ccccc2)n1
inactive: dose: 100.0 mg/kg/injection, schedule: Q04DX003 (ip), vehicle: acetone 94 % of control | dose: 200.0 mg/kg/injection, schedule: Q04DX003 (ip), vehicle: acetone 96 % of control | dose: 400.0 mg/kg/injection, schedule: Q04DX003 (ip), vehicle: acetone 96 % of control

Cc1ccc(C)c(NC(=O)c2ccc([N+](=O)[O-])cc2)c1
inactive: [1] 100 % of control | [2] 89 % of control | [3] 92 % of control

CC1(C)CCc2ccccc2C1
inactive: dose: 50.0 mg/kg/injection, schedule: Q01DX009 (ip), vehicle: saline with Tween-80 104 % of control | [4] 96 % of control

CS(=O)(=O)OCCN(CCOS(C)(=O)=O)c1ccc(N=O)cc1
inactive: dose: 0.08 mg/kg/injection, schedule: Q01DX Z (ip), vehicle: carboxymethylcellulose (CMC) 115 % of control | dose: 0.08 mg/kg/injection, schedule: Q01DX Z (ip), vehicle: saline 117 % of control | dose: 0.16 mg/kg/injection, schedule: Q01DX Z (ip), vehicle: carboxymethylcellulose (CMC) 123 % of control | dose: 0.16 mg/kg/injection, schedule: Q01DX Z (ip), vehicle: saline 122 % of control | dose: 0.63 mg/kg/injection, schedule: Q01DX Z (ip), vehicle: saline 120 % of control | dose: 1.25 mg/kg/injection, schedule: Q01DX Z (ip), vehicle: saline 110 % of control | dose: 1.28 mg/kg/injection, schedule: Q01DX Z (ip), vehicle: carboxymethylcellulose (CMC) 103 % of control | dose: 2.0 mg/kg/injection, schedule: Q01DX001 (ip), vehicle: saline 120 % of control | dose: 4.0 mg/kg/injection, schedule: Q01DX001 (ip), vehicle: saline 121 % of control

CC1=C(C)CC2C(=O)OC(=O)C2C1 (centres undefined)
inactive: [5] 98 % of control | [6] 106 % of control | [7] 98 % of control | [8] 102 % of control | [9] 95 % of control | [10] 105 % of control | [11] 98 % of control | [12] 98 % of control | [13] 105 % of control

Cc1c(Cl)cccc1NC(=O)c1ccc(Cl)cc1
inactive: [14] 87 % of control | [6] 93 % of control | [15] 91 % of control | [9] 96 % of control | [16] 97 % of control | [12] 91 % of control

CCCn1nnc2ccccc2c1=Nc1ccccc1Cl
inactive: dose: 50.0 mg/kg/injection, schedule: Q01DX009 (ip), vehicle: saline 97 % of control | [5] 88 % of control | [7] 110 % of control | [8] 97 % of control | [10] 106 % of control | [13] 100 % of control

CC(C)CCOC(=O)Nc1cccc(Cl)c1
inactive: dose: 75.0 mg/kg/injection, schedule: Q01DX009 (ip), vehicle: saline with Tween-80 113 % of control | dose: 100.0 mg/kg/injection, schedule: Q04DX002 (ip), vehicle: saline with Tween-80 93 % of control | dose: 150.0 mg/kg/injection, schedule: Q01DX009 (ip), vehicle: saline with Tween-80 103 % of control | dose: 200.0 mg/kg/injection, schedule: Q04DX002 (ip), vehicle: saline with Tween-80 86 % of control | dose: 300.0 mg/kg/injection, schedule: Q01DX009 (ip), vehicle: saline with Tween-80 98 % of control | dose: 400.0 mg/kg/injection, schedule: Q04DX002 (ip), vehicle: saline with Tween-80 89 % of control

CC(=O)N(C)c1ccc(N)cc1
inactive: [5] 104 % of control | [7] 100 % of control | [8] 98 % of control | [10] 105 % of control | [11] 93 % of control | [13] 102 % of control

O=S(=O)(NC1CCC(CC2CCCCC2)CC1)c1ccccc1 (centres undefined)
inactive: [14] 101 % of control | [6] 96 % of control | [15] 104 % of control | [9] 97 % of control | [16] 106 % of control | [12] 94 % of control

CC(C)CCC[C@@H](C)[C@H]1CC[C@H]2[C@@H]3CC=C4C[C@@H](O)CC[C@]4(C)[C@H]3CC[C@]12C
inactive: [17] 92 % of control | [14] 94 % of control | [6] 97 % of control | [18] 95 % of control | [15] 91 % of control | [9] 89 % of control | [19] 92 % of control | [16] 92 % of control | [12] 94 % of control

Nc1ccccc1C(=O)c1ccccc1
inactive: dose: 100.0 mg/kg/injection, schedule: Q01DX001 (ip), vehicle: Klucel (hydroxypropylcellulose) (HPC) 94 % of control | [4] 90 % of control | [6] 98 % of control | [20] 93 % of control | dose: 200.0 mg/kg/injection, schedule: Q01DX001 (ip), vehicle: Klucel (hydroxypropylcellulose) (HPC) 93 % of control | dose: 200.0 mg/kg/injection, schedule: Q01DX009 (ip), vehicle: saline with Tween-80 95 % of control | [9] 98 % of control | [21] 95 % of control | [22] 95 % of control

O=C(CCl)N(O)c1ccccc1OCc1ccccc1
inactive: dose: 100.0 mg/kg/injection, schedule: Q04DX003 (ip), vehicle: carboxymethylcellulose (CMC) 91 % of control | dose: 200.0 mg/kg/injection, schedule: Q04DX003 (ip), vehicle: carboxymethylcellulose (CMC) 102 % of control

Nc1cc2c(c(Cl)c1Br)-c1ccccc1C2=O
inactive: [17] 96 % of control | [18] 90 % of control | [19] 94 % of control

CC(=O)c1cc2c(cc1C)OCO2
inactive: [17] 103 % of control | [18] 97 % of control | [19] 101 % of control

CCC(=O)Nc1cc(C(C)C)ccc1C
inactive: [14] 107 % of control | [6] 97 % of control | [15] 110 % of control | [9] 97 % of control | [16] 103 % of control | [12] 104 % of control

CCOC(=O)c1cnc(SC)nc1Nc1cc(Cl)cc(Cl)c1
inactive: [20] 89 % of control | [21] 87 % of control | [22] 91 % of control

CCCCCC#CC(=O)OCCC
inactive: [1] 97 % of control | [2] 101 % of control | [3] 101 % of control

CSc1nc(C)c(C)[n+](C)n1
inactive: dose: 75.0 mg/kg/injection, schedule: Q01DX001 (ip), vehicle: saline with Tween-80 115 % of control | dose: 150.0 mg/kg/injection, schedule: Q01DX001 (ip), vehicle: saline with Tween-80 117 % of control
